Earlier results on three compounds are cited in patent publication US12473247B2, “Encoded design integrated synthesis of nucleic acids, and phospholipids, and related pharmaceutical products” (priority 2023, dated 2025).

For data set [1] the following is noted: ratio relative to cortisol = 1; pharmacological potency of corticosteroids.

As for `c1ccc2c(c1)ccc1c3ccccc3ccc21` [chrysene], the solubility in aqueous entry is “insoluble”.
Turning to `C[C@]12C=CC(=O)C=C1CC[C@@H]1[C@@H]2[C@@H](O)C[C@@]2(C)[C@H]1CC[C@]2(O)C(=O)CO` [prednisolone], the “relative activity of dexamethasone:prednisolone:cortisol” value in data set [1] is on record as ~4.
Turning to `C[C@]12CCC(=O)C=C1CC[C@@H]1[C@@H]2[C@@H](O)C[C@@]2(C)[C@H]1CC[C@]2(O)C(=O)CO` [cortisol], the “relative activity of dexamethasone:prednisolone:cortisol” value in data set [1] is ~1.
